Converted amounts (≈) assume the structure as drawn.
Key:
[1] = tested on: Aspergillus; experiment: In vitro broth dilution MFC, Aspergillus; format: cell-based, Aspergillus flavus, fumigatus and other species; conditions: 37 strains
Method: (§1) The in vitro antifungal activity tests were performed via conventional broth dilution methods in Sabouraud dextrose broth ("SDB") medium and Eagles Minimum Essential Medium ("EMEM") against a large number of fungi. Minimum Inhibitory Concentrations ("MICs") were measured after 24, 48 and 72 hour tests. In many cases, Minimum Fungicidial Concentrations ("MFCS") were measured after 48 and 72 hours.

[2] = tested on: Candida albicans; experiment: In vitro broth dilution MIC, Candida albicans; format: cell-based; conditions: 26 strains; for MIC90: read-out: MIC 90 (Minimum Inhibitory Concentrations for 90% of the strains)
Method: as §1

[3] = tested on: Dermatophytes; experiment: In vitro broth dilution MFC, dermatophytes; format: cell-based, T. rubrum, T. mentagrophytes, and T. tonsurans; conditions: 6 strains
Method: as §1

[4] = tested on: Cryptococcus neoformans; experiment: In vitro broth dilution MIC, Cryptococcus neoformans; format: cell-based; conditions: 3 strains
Method: as §1

[5] = tested on: Candida glabrata; experiment: In vitro broth dilution MIC, Candida glabrata; format: cell-based; conditions: 9 strains; for MIC90: Nakaseomyces glabratus, read-out: MIC 90 (Minimum Inhibitory Concentrations for 90% of the strains)
Method: as §1

[6] = tested on: Candida krusei; experiment: In vitro broth dilution MFC, Candida krusei; format: cell-based; conditions: 16 strains
Method: as §1

[7] = tested on: Aspergillus; experiment: In vitro broth dilution MIC, Aspergillus; format: cell-based, Aspergillus flavus, fumigatus and other species; conditions: for MIC90: read-out: MIC 90 (Minimum Inhibitory Concentrations for 90% of the strains)
Method: as §1

[8] = tested on: Candida glabrata; experiment: In vitro broth dilution MFC, Candida glabrata; format: cell-based; conditions: 9 strains
Method: as §1

[9] = tested on: Candida albicans; conditions: 26 strains
Method: as §1

[10] = tested on: Cryptococcus neoformans; experiment: In vitro broth dilution MFC, Cryptococcus neoformans; format: cell-based; conditions: 3 strains
Method: as §1

[11] = tested on: Candida tropicalis & stellatoidea; experiment: In vitro broth dilution MIC, Candida tropicalis & stellatoidea; format: cell-based; conditions: 5 strains
Method: as §1

[12] = tested on: Dermatophytes; experiment: In vitro broth dilution MIC, dermatophytes; format: cell-based, T. rubrum, T. mentagrophytes, and T. tonsurans; conditions: 6 strains
[13] = tested on: Candida krusei; experiment: In vitro broth dilution MIC, Candida krusei; format: cell-based; conditions: 16 strains
[14] = tested on: Candida tropicalis & stellatoidea; conditions: 5 strains
Method: as §1

[15] = Serum levels, serum half lives and tissue distribution following oral dosing; format: in vivo, mice, rats, dogs and monkeys
[16] = tested on: cytochrome P-450 liver drug metabolizing enzymes; experiment: Induction of cytochrome P-450 liver drug metabolizing enzymes in an in vivo rat model; conditions: after oral administration

With `CC[C@H]([C@H](C)O)n1ncn(-c2ccc(N3CCN(c4ccc(OC[C@@H]5CO[C@@](Cn6cncn6)(c6ccc(F)cc6F)C5)cc4)CC3)cc2)c1=O` the “Percentage of strains with MFCs ≤1 mcg/ml” value [1] was 50 PERCENTAGE, the MIC90 [2] was 0.274 µg/mL (≈ 0.391 µM) and the “Percentage of strains with MFCs ≤1 mcg/ml” value [3] was 67 PERCENTAGE. The “MIC 90 (Minimum Inhibitory Concentrations for 90% of the strains)” value [4] was “.05 MCG/ML”, the MIC90 [5] was 28.8 µg/mL (≈ 41.1 µM) and the “Percentage of strains with MFCs ≤1 mcg/ml” value [6] was 88 PERCENTAGE. For the same compound, the MIC90 ([7]; Aspergillus, 37 strains) was 0.122 µg/mL (≈ 0.174 µM).
With `OC(Cn1cncn1)(Cn1cncn1)c1ccc(F)cc1F` [FLZ, fluconazole] the “Percentage of strains with MFCs ≤1 mcg/ml” value [1] was 0 PERCENTAGE, the “Percentage of strains with MICs ≤1 mcg/ml” value [2] was 100 PERCENTAGE and the MIC90 [2] was 0.887 µg/mL (≈ 2.9 µM). For the same compound, the “Percentage of strains with MFCs ≤1 mcg/ml” value [8] was 0 PERCENTAGE, the “Percentage of strains with MFCs ≤1 mcg/ml” value [3] was 0 PERCENTAGE and the “Percentage of strains with MICs ≤1 mcg/ml” value [4] was 0 PERCENTAGE. The MIC90 ([4]; read-out: MIC 90 (Minimum Inhibitory Concentrations for 90% of the strains)) was 25.9 µg/mL (≈ 84.6 µM), the “Percentage of strains with MICs ≤1 mcg/ml” value [5] was 0 PERCENTAGE and the MIC90 [5] was 29.3 µg/mL (≈ 95.7 µM). The “Percentage of strains with MFCs ≤1 mcg/ml” value [9] was 100 PERCENTAGE, the “Percentage of strains with MFCs ≤1 mcg/ml” value [10] was 0 PERCENTAGE and the “Percentage of strains with MICs ≤1 mcg/ml” value [11] was 100 PERCENTAGE. For the same compound, the MIC90 ([11]; Candida tropicalis, read-out: MIC 90 (Minimum Inhibitory Concentrations for 90% of the strains)) was 0.917 µg/mL (≈ 2.99 µM), the “Percentage of strains with MICs ≤1 mcg/ml” value [12] was 100 PERCENTAGE and the “Percentage of strains with MICs ≤1 mcg/ml” value [13] was 0 PERCENTAGE. For the same compound, the MIC90 ([13]; Pichia kudriavzevii, read-out: MIC 90 (Minimum Inhibitory Concentrations for 90% of the strains)) was 29.9 µg/mL (≈ 97.6 µM), the “Percentage of strains with MFCs ≤1 mcg/ml” value [6] was 0 PERCENTAGE and the “Percentage of strains with MICs ≤1 mcg/ml” value ([7]; Aspergillus, 37 strains) was 0 PERCENTAGE. For the same compound, the MIC90 ([7]; Aspergillus, 37 strains) was 29.9 µg/mL (≈ 97.6 µM), the MIC ([7]; SDB, 37 species of Aspergillus, read-out: geometric mean MICs) was no less than 32 µg/mL and the “Percentage of strains with MFCs ≤1 mcg/ml” value [14] was 100 PERCENTAGE.
With `CCC(C(C)O)n1ncn(-c2ccc(N3CCN(c4ccc(OCC5COC(Cn6cncn6)(c6ccc(F)cc6F)C5)cc4)CC3)cc2)c1=O` (centres unmarked) [drawing 21] the serum half lives ([15]; following O.D. dosing) was “very long serum half lives”, the “serum levels compared to azoles of similar structure” value ([15]; mice, rats, dogs and monkeys, oral dosing with a methyl cellulose formulation) was “consistently higher serum levels” and the “induction of various cytochrome P-450 liver drug metabolizing enzymes” value [16] was “not inducers”.
For `CCC(C(C)O)n1ncn(-c2ccc(N3CCN(c4ccc(OCC5COC(Cn6cncn6)(c6ccc(F)cc6F)C5)cc4)CC3)cc2)c1=O` (centres unmarked) [drawing 23], the “Percentage of strains with MFCs ≤1 mcg/ml” value [1] was 62 PERCENTAGE, the “Percentage of strains with MFCs ≤1 mcg/ml” value [3] was 83 PERCENTAGE and the “MIC 90 (Minimum Inhibitory Concentrations for 90% of the strains)” value [4] was “.007 MCG/ML”. The “Percentage of strains with MFCs ≤1 mcg/ml” value [6] was 94 PERCENTAGE.
For `CCC(C(C)O)n1ncn(-c2ccc(N3CCN(c4ccc(OCC5COC(Cn6cncn6)(c6ccc(F)cc6F)C5)cc4)CC3)cc2)c1=O` (centres unmarked) [drawing 24], the “Percentage of strains with MFCs ≤1 mcg/ml” value [1] was 89 PERCENTAGE, the “Percentage of strains with MFCs ≤1 mcg/ml” value [3] was 100 PERCENTAGE and the “Percentage of strains with MFCs ≤1 mcg/ml” value [6] was 100 PERCENTAGE.

Reference: US5661151A, “Tetrahydrofuran antifungals” (Schering Corporation, priority 1995, dated 1997)
